Measured values as given in US7973062B2, “Androgen receptor-ablative agents” (The Ohio State University Research Foundation, priority 2008, dated 2011).
pIC50: −log10 of the molar value. Like-named read-outs stand apart in the source and are kept apart here.

Tests used:
Type in all cases: cell-based
[1] = tested on: LNCaP androgen-responsive prostate cancer cells; test: MTT cell viability assay, LNCaP cells; details: for pIC50: Homo sapiens, 5% FBS, read-out: IC50 for suppressing cell viability
Experimental: (§1) Cell Counting and Cell Viability Assay. LNCaP or PC-3 cells were placed in six-well plates (2.5×10^5 cells/well) in 10% FBS-supplemented RPMI 1640 for 24 h, and treated with various concentrations of compound 12 for additional 24, 48 and 72 h. Cells were then trypsinized and counted by using a Coulter counter (Model Z1 D/T, Beckman Coulter, Fullerton, Calif.). Cell viability was assessed by using the 3-(4,5-dimethylthiazol-2-yl)-2,5-diphenyl-2H-tetrazolium bromide (MTT) assay in six replicates in 96-well plates. LNCaP or PC-3 cells were seeded at 6000 cells per well in 10% FBS-supplemented RPMI 1640 for 24 h, followed by treatments with various compounds in 5% FBS-supplemented RPMI 1640 at the indicated concentrations. Controls received DMSO at a concentration equal to that in drug-treated cells. After the end of incubation, MTT (0.5 mg/ml) in 10% FBS-supplemented RPMI 1640 was added to each well, and cells were incubated at 37° C. for 2 hours. Medium was removed and the reduced MTT dye was solubilized in DMSO (200 μl/well). Absorbance was determined at 570 nm by a 96-well plate reader.

[2] = tested on: PC-3 androgen-nonresponsive prostate cancer cells; test: MTT cell viability assay, PC-3 cells; details: Homo sapiens, 5% FBS, read-out: IC50 for suppressing cell viability
Experimental: as §1

PPARγ = molecular target: T1, PPARγ (Homo sapiens, UniProt P37231); test: PPRE-luciferase reporter assay (PPRE-x3-TK-Luc) in PC-3 cells; details: PC-3 cells transfected with PPRE-x3-TK-Luc
T1 construct: In PC-3 cells transfected with a reporter construct (PPRE-x3-TK-Luc); endogenous in cells; host or cells: PC-3
T1 sequence (P37231 1-505): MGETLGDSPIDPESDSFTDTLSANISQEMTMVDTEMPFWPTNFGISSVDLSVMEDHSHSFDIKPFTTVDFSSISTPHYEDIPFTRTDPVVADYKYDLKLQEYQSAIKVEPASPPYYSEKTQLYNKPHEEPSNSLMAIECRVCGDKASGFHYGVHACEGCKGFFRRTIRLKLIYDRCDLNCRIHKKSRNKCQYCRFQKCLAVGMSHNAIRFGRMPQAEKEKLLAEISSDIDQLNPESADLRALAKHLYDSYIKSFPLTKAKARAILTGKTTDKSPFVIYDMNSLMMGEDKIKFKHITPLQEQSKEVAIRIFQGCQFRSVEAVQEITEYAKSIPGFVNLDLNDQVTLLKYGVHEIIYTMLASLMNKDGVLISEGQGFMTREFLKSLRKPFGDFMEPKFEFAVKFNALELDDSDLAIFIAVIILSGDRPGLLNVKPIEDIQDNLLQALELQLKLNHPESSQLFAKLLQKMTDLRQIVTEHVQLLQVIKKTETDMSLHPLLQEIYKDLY
Source text: Transfection and Luciferase assay. The 3.6-kilobase AR promoter-linked reporter plasmid p-3600ARCAT was kindly provided by Dr. Chawnshang Chang (University of Rochester Medical Center, Rochester, N.Y.). The AR promoter gene (−3600 to +550) encompassing the transcription start site was isolated by using PCR to generate hAR-luc with suitable primers. The fragment was subcloned into the pGL3 luciferase reporter vector (Promega, Madison, Wis.) at KpnI and BglII in the multiple cloning site. The PPRE-x3-TK-Luc reporter vector contains three copies of the PPAR-response element (PPRE) upstream of the thymidine kinase promoter-luciferase fusion gene and was kindly provided by Dr. Bruce Spiegelman (Harvard University, Cambridge, Mass.). The pCMVSp1 plasmid was purchased from Origene Technologies, Inc. (Rockville, Md.). LNCaP or PC3 cells were transfected with 5 μg of individual plasmids in an Amaxa Nucleofector using a cell line-specific nucleofector kit according to the manufacturer's protocol (Amaxa Biosystems, Cologne, Germany), and then seeded in 6-well plates at 5×10^5 cells per well for 48 h. […] For each transfection, herpes simplex virus thymidine kinase promoter-driven Renilla reniformis luciferase was used as an internal control for normalization.
Fifty-μl aliquots of the lysates were added to 96-well plates, and luciferase activity was monitored after adding 100 μl of luciferase substrate (Promega) each well by using a MicroLumatPlus LB96V luminometer (Berthold Technologies, Oak Ridge, Tenn.) with the WinGlow software package. All transfection experiments were carried out in six replicate.

androgen receptor (AR) = test: Immunocytochemical analysis of AR in LNCaP cells; details: 5 μM, 48 h
Experimental: Immunocytochemical Analysis. Cells were seeded onto coverslips in six-well plates (2.5×10^5 cells/well) for 24 h followed by exposure to 5 μM compound 12 for an additional 48 h. After extensive washing with PBS, cells were fixed and permeabilized with PBS containing 0.1% Triton X-100 for 1 h, and then incubated with anti-AR (1:100 dilution) in PBS containing 0.1% Triton X-100, 0.2% bovine serum albumin, 0.5 mM PMSF, and 1 mM DTT at room temperature for 12 h followed by Alexa Fluor 488-conjugated goat anti-mouse IgG (1:100; Molecular Probes) for 2 h. Nuclear counterstaining was performed by mounting with 4,6-diamidino-2-phenylindole (DAPI)-containing medium. Images of immunocytochemically labeled samples were observed using a Nikon microscope (Eclipse TE300).

Compound: CC1(CN2C(=O)S/C(=C\c3ccc(O)c(C(F)(F)F)c3)C2=O)CCCCC1 [Compound 12, 5-(4-Hydroxy-3-trifluoromethyl-benzylidene)-3-(1-methyl-cyclohexylmethyl)-thiazolidine-2,4-dione]
- inhibition of LNCaP cell viability (in words) ([1]; 48 h): optimal agents
- pIC50 ([1]; 48 h): 5.10
- pIC50 ([1]; 72 h): 5.52
- pIC50 ([2]; 48 h): 4.82
- pIC50 ([2]; 72 h): 4.92
- PPARγ activation (in words) (PPARγ): lacked appreciable activity
- AR levels in the nucleus (androgen receptor (AR)): substantial decrease in AR levels in the nucleus
